In ChEMBL document CHEMBL1201862, “PubChem BioAssay data set” (2004):
Activity calls are given as the source filed them.

How the values were obtained:
[1] = target: T1, Endoribonuclease toxin MazF (Escherichia coli K-12, UniProt P0AE70); assay: activation of MazEF endoribonuclease cleavage – biochemical, fluorescence, single-stranded RNA substrate, uHTS hits, dose response (AID 588481); assay type: functional
T1 sequence (P0AE70 whole entry): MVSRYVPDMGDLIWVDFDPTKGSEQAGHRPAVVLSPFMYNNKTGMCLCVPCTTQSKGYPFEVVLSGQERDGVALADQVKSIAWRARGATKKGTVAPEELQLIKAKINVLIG

[2] = target: T1, Endoribonuclease toxin MazF; assay: substrate-only fluorescence increase artefacts – biochemical, single-stranded RNase substrate, counter-screen for MazEF activator project, dose response (AID 588502); assay type: functional
[3] = Luminescence-based cell-based high throughput dose response assay to identify activators of the DAF-12 from the parasite S. stercoralis (ssDAF-12).; assay type: functional
[4] = target: T2, Oxysterols receptor LXR-beta (Homo sapiens, UniProt P55055); assay: LXR agonists, Gal4 luciferase reporter, dose response, counter-screen for ssDAF-12 agonist project, cell-based, luminescence, HEK293, S. stercoralis campaign (AID 720737); assay type: functional; conditions: read-out: IC50 (the source's name)
T2 sequence (P55055 whole entry): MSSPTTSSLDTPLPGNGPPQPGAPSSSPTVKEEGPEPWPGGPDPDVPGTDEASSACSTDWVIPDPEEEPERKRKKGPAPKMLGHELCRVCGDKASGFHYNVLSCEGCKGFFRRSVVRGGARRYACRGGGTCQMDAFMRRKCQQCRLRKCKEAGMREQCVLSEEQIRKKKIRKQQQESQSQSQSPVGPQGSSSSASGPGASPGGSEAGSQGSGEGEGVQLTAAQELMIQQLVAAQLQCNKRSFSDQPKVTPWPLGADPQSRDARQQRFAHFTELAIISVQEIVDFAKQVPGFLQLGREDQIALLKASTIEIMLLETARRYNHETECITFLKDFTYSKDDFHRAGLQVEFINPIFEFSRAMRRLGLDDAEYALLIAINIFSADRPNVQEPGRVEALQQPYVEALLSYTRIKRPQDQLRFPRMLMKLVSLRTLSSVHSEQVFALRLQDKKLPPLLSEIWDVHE

[5] = viability of uninfected HEp-2 cells – cell-based, HTS, cytotoxicity control for RSV inhibitor project, dose response (AID 2410); assay type: functional; conditions: human respiratory syncytial virus
[6] = cells
[7] = target: Voltage-dependent T-type calcium channel subunit alpha-1H (Homo sapiens, UniProt O95180); assay type: functional;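 note: channel activity triggered by adding a high calcium stimulation buffer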
[8] = target: T3, Probable nicotinate-nucleotide adenylyltransferase (Staphylococcus aureus (strain N315), UniProt P65502); assay type: functional, Staphylococcus aureus subsp. aureus N315;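 for IC50 Mean: confirmatory dose-response retesting of NadD inhibitor hits first found in an ultra-high-throughput screen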
[9] = target: T3, Probable nicotinate-nucleotide adenylyltransferase; assay type: functional, Staphylococcus aureus subsp. aureus N315; conditions: read-out: IC50_Mean
[10] = viability loss in THP-1 monocytes – THP-1 cells, cytotoxicity control for Vif-APOBEC3G degradation inhibitor project, dose response (AID 1117359); assay type: functional; conditions: THP-1
[11] = target: T4, Estrogen receptor (Homo sapiens, UniProt P03372);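 note: potency for inhibiting coactivator peptide recruitment to the receptor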
T4 sequence (P03372 whole entry): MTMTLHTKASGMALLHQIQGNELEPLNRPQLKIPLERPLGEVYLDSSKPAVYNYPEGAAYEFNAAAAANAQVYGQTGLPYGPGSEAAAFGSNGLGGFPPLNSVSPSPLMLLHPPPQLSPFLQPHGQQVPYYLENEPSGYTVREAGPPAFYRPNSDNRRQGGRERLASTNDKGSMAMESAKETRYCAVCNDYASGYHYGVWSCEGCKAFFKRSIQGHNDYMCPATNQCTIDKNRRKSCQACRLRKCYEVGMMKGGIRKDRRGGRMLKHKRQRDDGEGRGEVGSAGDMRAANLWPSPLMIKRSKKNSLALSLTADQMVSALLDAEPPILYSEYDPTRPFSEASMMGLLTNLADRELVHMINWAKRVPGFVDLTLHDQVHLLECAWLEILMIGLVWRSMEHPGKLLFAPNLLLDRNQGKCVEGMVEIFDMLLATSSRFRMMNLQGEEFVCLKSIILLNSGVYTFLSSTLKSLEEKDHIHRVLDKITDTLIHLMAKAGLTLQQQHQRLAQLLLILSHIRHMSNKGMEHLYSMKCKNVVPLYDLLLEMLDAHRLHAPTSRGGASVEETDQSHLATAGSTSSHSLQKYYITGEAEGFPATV

[12] = target: T5, Estrogen receptor beta (Homo sapiens, UniProt Q92731);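 note: recombinant ER-beta bound to coactivator SRC1 peptide in presence of estradiol agonist; inhibitors block coactivator peptide binding and lower the FRET signal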
[13] = target: T5, Estrogen receptor beta; assay: blockers of SRC-3 recruitment to ERβ – biochemical, ELISA, streptavidin-HRP readout, orthogonal assay, confirmation (AID 1060)
[14] = test system: Vero; assay: cells; assay type: functional, cell-based; conditions: Chlorocebus sabaeus
[15] = test system: Vero; assay: cells; assay type: functional; conditions: Chlorocebus sabaeus
[16] = target: T6, RNA-binding protein pos-1 (Caenorhabditis elegans, UniProt G5EF15); assay: disruptors of C. elegans POS-1 RNA interaction – biochemical, fluorescence polarization, dose response (AID 1964);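 note: purified POS-1 fused to maltose binding protein made in E. coli; potency of compounds blocking POS-1 binding to fluorescent RNA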
T6 sequence (G5EF15 whole entry): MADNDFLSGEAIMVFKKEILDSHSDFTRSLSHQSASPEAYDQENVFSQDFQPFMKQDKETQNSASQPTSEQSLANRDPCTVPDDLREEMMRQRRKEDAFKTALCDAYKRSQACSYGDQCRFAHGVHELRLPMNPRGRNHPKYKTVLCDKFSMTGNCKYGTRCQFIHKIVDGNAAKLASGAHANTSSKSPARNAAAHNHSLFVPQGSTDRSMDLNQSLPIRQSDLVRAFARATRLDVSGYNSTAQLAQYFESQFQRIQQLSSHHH

[17] = target: T7, Zinc finger protein mex-5 (Caenorhabditis elegans, UniProt Q9XUB2); assay: potency of MEX-5 RNA-binding blockers – biochemical, C. elegans, fluorescence polarization, dose response (AID 1960)
T7 sequence (Q9XUB2 whole entry): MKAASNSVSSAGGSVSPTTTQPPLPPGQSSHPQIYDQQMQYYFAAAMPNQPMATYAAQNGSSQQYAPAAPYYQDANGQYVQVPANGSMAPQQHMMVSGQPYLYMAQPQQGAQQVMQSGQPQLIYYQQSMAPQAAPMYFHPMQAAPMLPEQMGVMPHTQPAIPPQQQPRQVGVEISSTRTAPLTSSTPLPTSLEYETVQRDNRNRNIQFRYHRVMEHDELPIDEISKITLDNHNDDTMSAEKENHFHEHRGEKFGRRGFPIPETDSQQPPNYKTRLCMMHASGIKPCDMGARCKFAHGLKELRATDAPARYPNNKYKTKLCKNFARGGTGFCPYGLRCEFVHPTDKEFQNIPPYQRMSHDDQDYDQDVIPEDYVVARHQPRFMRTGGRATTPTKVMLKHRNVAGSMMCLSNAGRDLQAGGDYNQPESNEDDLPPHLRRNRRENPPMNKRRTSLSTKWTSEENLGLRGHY

[18] = NIH-3T3 fibroblast cytotoxicity, dose response, cytotoxicity control, cell-based, fluorescence, Alamar Blue, secondary assay (AID 2327); assay type: functional;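 note: NIH-3T3 mouse fibroblasts cultured with fluconazole at 8 µg/mL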
[19] = test system: Streptococcus sp. 'group A'; assay: Streptococcus pyogenes SK(-)GAS viability under kanamycin – luminescence, BacTiterGlo, confirmation, counter-screen for streptokinase expression inhibitor project, dose response (AID 1900); assay type: functional, organism-based
[20] = cells; assay type: functional, cell-based
[21] = fluconazole-exposed Candida albicans growth modulators – fluorescence, retest, confirmation (AID 2467); assay type: functional, cell-based
[22] = Luminescence-based counterscreen assay for KLF5 inhibitors: dose response cell-based high throughput screening assay to identify cytotoxic compounds using the IEC-6 intestinal epithelial cell line. [Related pubchem assays: 1700 (Primary screen.), 1834 (Confirmation screen.), 1858 (Summary AID.), 1905 (Counterscreen.)]; assay type: functional
[23] = cells; assay type: functional, cell-based; remark: listed apart in the source
[24] = test system: Streptococcus; assay: GAS UMAA2166 growth inhibition – luminescence, BacTiterGlo, counter-screen for streptokinase expression inhibitor project, dose response (AID 1915); assay type: functional, organism-based;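 note: potency for reduction of bacterial viability or growth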
[25] = test system: INS1; assay: INS-1E survival protection against cytokine death – cell-based, luminescence, retest, dose response (AID 449756); assay type: functional; conditions: Rattus norvegicus;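 note: cell death triggered by IL-1 beta plus TNF-alpha plus IFN-gamma mixture; protective hits raise ATP signal compared with cytokine alone wells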
[26] = target: Protein Wnt-3a (Mus musculus, UniProt P27467); assay: antagonism of Wnt3a pathway luciferase reporter – Wnt-LIGHT cells, luminescence, selectivity assay for Gli-SUFU antagonist project, dose response (AID 651570); assay type: functional; conditions: read-out: IC50_Mean;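 note: Wnt-LIGHT reporter cells stimulated with conditioned medium from Wnt3a-producing cells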
[27] = target: Paired box protein Pax-8 (Homo sapiens, UniProt Q06710); assay: PAX8 transcriptional activity inhibition in RMG-I – RMG-I cells, luciferase, cherry-pick, dose response (AID 687027); assay type: functional, cell-based;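 note: luciferase reporter driven by Pax8 target thyroperoxidase promoter measured by SteadyGlo luminescence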
[28] = OVCAR-3 cell viability loss – plate reader, dry powder samples, PAX8 inhibitor project, dose response (AID 743044); assay type: functional, cell-based
[29] = IGROV1 cell killing – plate reader, dry powder samples, PAX8 inhibitor project, dose response (AID 743043); assay type: functional, cell-based; conditions: IGROV-1
[30] = OVCAR8 cell viability loss – plate reader, dry powder samples, PAX8 project, dose response (AID 743197); assay type: functional, cell-based; conditions: OVCAR-8
[31] = P. falciparum Dd2 growth inhibitors, dose response, SYBR Green, cherry-picked samples (AID 1159567); assay type: functional, cell-based
[32] = toxicity to human hepatoma HepG2 cells – cell-based, cherry-picked samples, cytotoxicity control, dose response (AID 1159577); assay type: functional
[33] = target: Luciferin 4-monooxygenase (Photinus pyralis, UniProt P08659); assay: inhibition of purified Photinus pyralis luciferase – biochemical, luminescence, dose response (AID 1891)
[34] = Luminescence Cell-Based Dose Confirmation HTS to Identify Inhibitors of Platelet Dense Granule Release. [Related pubchem assays: 1663 (Primary HTS), 1678 (Summary of Project)]; assay type: functional

Sequence of Voltage-dependent T-type calcium channel subunit alpha-1H (O95180 whole entry): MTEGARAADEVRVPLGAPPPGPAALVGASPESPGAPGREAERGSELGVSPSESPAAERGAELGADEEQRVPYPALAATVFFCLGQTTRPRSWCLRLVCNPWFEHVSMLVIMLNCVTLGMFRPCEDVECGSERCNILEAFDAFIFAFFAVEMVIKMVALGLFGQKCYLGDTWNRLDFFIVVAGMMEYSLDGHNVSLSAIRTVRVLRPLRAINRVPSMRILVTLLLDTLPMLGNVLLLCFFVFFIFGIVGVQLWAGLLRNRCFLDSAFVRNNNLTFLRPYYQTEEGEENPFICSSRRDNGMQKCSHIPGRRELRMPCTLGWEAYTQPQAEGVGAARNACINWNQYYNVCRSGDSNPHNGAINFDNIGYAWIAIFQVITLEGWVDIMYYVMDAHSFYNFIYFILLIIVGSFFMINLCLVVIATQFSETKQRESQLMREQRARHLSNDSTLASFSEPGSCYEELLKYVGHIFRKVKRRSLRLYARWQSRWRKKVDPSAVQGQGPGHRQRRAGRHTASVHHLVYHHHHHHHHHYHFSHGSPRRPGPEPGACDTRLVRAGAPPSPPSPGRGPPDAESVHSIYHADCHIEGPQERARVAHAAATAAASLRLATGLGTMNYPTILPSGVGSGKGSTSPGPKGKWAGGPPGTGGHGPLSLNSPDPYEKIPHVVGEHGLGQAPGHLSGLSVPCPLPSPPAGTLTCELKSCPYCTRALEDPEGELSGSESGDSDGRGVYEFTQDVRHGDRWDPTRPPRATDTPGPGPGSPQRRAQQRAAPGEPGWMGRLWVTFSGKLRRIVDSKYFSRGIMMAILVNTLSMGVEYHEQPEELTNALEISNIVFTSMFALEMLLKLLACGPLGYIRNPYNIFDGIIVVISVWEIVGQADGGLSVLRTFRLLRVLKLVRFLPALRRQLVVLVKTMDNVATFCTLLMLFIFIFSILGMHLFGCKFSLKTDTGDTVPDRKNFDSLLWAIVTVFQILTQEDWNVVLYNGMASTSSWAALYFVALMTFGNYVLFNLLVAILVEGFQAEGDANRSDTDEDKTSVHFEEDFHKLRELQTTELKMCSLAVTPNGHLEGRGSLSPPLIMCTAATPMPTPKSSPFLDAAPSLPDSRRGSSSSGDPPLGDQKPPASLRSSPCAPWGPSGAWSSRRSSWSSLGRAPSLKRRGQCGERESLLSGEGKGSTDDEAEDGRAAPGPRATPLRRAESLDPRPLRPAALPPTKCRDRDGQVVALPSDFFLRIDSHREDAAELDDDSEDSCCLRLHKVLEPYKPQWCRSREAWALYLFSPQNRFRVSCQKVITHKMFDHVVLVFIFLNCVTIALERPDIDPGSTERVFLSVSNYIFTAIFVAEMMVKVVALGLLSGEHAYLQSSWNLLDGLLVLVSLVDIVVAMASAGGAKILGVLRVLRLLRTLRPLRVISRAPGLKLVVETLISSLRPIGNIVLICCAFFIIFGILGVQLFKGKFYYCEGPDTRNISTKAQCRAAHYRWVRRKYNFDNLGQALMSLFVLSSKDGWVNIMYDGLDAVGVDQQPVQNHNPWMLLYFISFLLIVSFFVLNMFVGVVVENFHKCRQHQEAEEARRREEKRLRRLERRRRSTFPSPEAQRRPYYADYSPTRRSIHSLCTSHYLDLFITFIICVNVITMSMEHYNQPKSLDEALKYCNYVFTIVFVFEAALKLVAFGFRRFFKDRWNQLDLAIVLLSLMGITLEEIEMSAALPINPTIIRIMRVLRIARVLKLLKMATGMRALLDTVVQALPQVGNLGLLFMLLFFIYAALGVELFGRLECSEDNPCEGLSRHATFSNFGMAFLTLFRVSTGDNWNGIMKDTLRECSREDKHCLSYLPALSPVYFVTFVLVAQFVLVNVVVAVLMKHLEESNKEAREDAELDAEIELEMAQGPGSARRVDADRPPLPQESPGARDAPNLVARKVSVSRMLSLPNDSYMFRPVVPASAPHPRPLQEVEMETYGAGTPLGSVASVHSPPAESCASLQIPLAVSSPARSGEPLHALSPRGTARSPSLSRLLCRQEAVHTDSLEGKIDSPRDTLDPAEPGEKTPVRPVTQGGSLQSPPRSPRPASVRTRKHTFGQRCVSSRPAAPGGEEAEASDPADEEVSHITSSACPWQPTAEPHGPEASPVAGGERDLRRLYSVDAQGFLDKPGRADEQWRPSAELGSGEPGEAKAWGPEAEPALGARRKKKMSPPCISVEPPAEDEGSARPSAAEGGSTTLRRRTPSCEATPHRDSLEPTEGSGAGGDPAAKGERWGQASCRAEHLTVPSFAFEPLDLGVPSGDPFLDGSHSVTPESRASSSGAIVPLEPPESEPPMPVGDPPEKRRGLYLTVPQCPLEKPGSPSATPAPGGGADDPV
T5 sequence (Q92731 whole entry): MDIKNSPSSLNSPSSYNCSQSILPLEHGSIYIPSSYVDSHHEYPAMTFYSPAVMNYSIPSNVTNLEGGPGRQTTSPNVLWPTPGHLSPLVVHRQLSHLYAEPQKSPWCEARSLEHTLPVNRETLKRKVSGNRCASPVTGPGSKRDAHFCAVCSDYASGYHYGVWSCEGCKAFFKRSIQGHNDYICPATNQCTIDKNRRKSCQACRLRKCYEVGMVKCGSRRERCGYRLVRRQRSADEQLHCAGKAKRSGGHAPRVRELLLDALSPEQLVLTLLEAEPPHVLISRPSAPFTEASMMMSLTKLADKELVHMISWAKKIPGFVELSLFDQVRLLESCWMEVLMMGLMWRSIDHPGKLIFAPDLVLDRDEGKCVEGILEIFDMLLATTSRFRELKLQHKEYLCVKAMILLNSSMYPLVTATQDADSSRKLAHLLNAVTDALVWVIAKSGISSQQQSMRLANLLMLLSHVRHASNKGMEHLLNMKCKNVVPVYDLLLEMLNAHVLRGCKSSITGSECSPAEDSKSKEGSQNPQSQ
T3 sequence (P65502 whole entry): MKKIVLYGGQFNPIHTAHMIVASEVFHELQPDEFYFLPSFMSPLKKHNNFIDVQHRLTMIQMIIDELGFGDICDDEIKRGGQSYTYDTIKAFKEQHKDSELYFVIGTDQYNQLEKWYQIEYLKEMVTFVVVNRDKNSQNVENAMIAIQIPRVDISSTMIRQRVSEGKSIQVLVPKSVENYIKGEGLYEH
Sequence of Protein Wnt-3a (P27467 whole entry): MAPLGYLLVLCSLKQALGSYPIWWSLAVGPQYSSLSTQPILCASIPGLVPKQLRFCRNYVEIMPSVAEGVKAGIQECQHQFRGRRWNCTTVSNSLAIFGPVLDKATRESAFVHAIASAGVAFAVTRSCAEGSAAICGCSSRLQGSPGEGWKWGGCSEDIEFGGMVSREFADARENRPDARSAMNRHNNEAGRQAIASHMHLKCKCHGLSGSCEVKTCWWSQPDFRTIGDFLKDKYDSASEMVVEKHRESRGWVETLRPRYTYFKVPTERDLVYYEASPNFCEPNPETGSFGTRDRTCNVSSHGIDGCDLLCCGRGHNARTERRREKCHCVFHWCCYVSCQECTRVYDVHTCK
Sequence of Luciferin 4-monooxygenase (P08659 whole entry): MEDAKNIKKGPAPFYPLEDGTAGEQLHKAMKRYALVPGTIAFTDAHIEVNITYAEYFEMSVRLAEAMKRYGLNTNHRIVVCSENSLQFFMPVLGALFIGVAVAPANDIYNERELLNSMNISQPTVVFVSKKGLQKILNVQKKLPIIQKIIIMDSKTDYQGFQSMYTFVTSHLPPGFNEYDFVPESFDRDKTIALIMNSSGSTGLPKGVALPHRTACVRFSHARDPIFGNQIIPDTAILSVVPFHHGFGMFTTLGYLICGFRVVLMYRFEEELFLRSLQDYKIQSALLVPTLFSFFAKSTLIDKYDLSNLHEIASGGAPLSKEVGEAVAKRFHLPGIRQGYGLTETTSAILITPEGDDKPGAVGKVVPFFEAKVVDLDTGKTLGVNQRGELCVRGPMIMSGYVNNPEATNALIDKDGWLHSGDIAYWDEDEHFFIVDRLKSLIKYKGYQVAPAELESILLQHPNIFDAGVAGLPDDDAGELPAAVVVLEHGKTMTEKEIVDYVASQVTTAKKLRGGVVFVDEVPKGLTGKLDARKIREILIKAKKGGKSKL
Sequence of Paired box protein Pax-8 (Q06710 whole entry): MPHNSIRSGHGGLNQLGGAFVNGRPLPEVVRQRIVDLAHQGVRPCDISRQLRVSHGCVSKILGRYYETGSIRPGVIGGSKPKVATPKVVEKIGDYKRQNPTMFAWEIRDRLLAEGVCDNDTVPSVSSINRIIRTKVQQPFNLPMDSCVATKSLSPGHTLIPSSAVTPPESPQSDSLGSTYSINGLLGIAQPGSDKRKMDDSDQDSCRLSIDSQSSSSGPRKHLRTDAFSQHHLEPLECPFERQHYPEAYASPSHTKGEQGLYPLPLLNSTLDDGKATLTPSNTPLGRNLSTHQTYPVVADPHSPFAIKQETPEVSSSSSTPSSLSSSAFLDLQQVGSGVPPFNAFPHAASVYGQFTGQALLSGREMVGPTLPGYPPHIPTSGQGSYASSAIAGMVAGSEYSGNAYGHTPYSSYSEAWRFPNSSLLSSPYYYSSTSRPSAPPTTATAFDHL

## CCn1c(C)cc(C=C2C(=O)c3ccccc3C2=O)c1C
[1]
  EC50: 44.5 µM (inactive)
[2]
  EC50: 62.8 µM (inactive)
[3]
  IC50: > 67.5 µM (inactive)
[4]
  EC50: > 67.5 µM (inactive)

## O=C(CNC(=O)c1cccs1)N=Nc1c(O)[nH]c2ccc([N+](=O)[O-])cc12
[5]
  CC50: > 50 µM (active)
[6]
  IC50: 14.6 µM (active)

## Cc1ccc(-n2nc3c(c2NC(=O)c2cccs2)CSC3)cc1
[7]
  EC50: 0.558 µM (active)
[8]
  IC50: 6.35 µM (active)
[9]
  IC50: 16.2 µM (active)

## CCOc1ccc(C(=O)NC(=S)Nc2ccc(N3CCC(C)CC3)cc2)cc1[N+](=O)[O-]
[10]
  CC50: > 40 µM (active)

## Cc1ccc(-n2c(=O)c(C#N)cc3c(=O)n4cccc(C)c4nc32)cc1
[11]
  IC50: 30.9 µM (not active)
[12]
  IC50: 25.4 µM (active)
[13]
  IC50: < 77 µM (not active)

## CC1=Nc2cc(C(=O)N3CCCC3)ccc2Sc2c(C)ccc(C)c21
[5]
  CC50: 7.28 µM (active)
[14]
  IC50: 8.21 µM (active)
[15]
  CC50: 16.9 µM (active)
[6]
  IC50: 3.34 µM (active)

## COc1ccccc1NC(=O)N1CCc2[nH]c3ccc(F)cc3c2C1
[5]
  CC50: > 50 µM (active)
[7]
  EC50: 5.47 µM (active)

## CCn1c(SCc2ccc(C)cc2)nnc1C1CCN(S(=O)(=O)c2ccc(OC)cc2)CC1
[16]
  EC50: > 300 µM (not active)
[17]
  EC50: > 300 µM (not active)
[7]
  EC50: 6.41 µM (active)

## Cc1nn(Cc2ccccc2Cl)c(C)c1C(=O)Nc1nnc(C2CC2)s1
[5]
  CC50: 7.49 µM (active)
[14]
  IC50: 5.21 µM (active)
[15]
  CC50: > 25 µM (active)
[6]
  IC50: 3.75 µM (active)

## COc1ccc(OC)c2[nH]c(C(=O)N/N=C/c3ccccc3O)cc12
[18]
  EC50: > 160 µM (inactive)
[19]
  EC50: 1.96 µM (active)
[20]
  EC50: 12.2 µM (active)
[21]
  EC50: 1.86 µM (active)
[22]
  IC50: 12.5 µM (not active)
[23]
  EC50: > 350 µM (not active)
[24]
  EC50: 2.37 µM (active)
[25]
  AC50: 2.12 µM (active)

## CC1CCN(Cc2c(C(=O)N/N=C/c3ccccc3O)nnn2-c2nonc2N)CC1
[20]
  EC50: 29.5 µM (active)
[22]
  IC50: 4.81 µM (active)
[23]
  EC50: > 350 µM (not active)
[25]
  AC50: 0.9 µM (active)
[26]
  IC50: 20.8 µM (inactive)

## CCCC#Cc1ccc([C@H]2[C@@H](CO)N3CCCCN(S(=O)(=O)Cc4ccccc4)C[C@H]23)cc1
[27]
  AC50: 20.5 µM (active)
[28]
  AC50: 23.5 µM (active)
[29]
  AC50: 30.9 µM (active)
[30]
  AC50: > 70 µM (inactive)
[31]
  AC50: 2.67 µM (active)
[32]
  AC50: 11.9 µM (active)

## CC(=N)/C(C#N)=C(/O)CSc1nnnn1-c1ccc(C)cc1
[12]
  IC50: 13.7 µM (active)
[13]
  IC50: 0.345 µM (not active)

## O=C(Nc1ccccc1)N1CCCCN2[C@@H](CO)[C@@H](c3ccc(-c4ccccc4)cc3)[C@@H]2C1
[31]
  AC50: 4.43 µM (active)
[32]
  AC50: 9.01 µM (active)

## O=S(=O)(c1ccccc1)N1C[C@@H]2N[C@H](C1)[C@@H]2c1ccc(-c2ccc(F)cc2)cc1
[31]
  AC50: 5.34 µM (active)
[32]
  AC50: 10.9 µM (active)

## COc1cccc(CN(C)C[C@H]2OCc3ccccc3-c3c(n(C)c4ccccc34)C(=O)N([C@@H](C)CO)C[C@H]2C)c1
[31]
  AC50: 1.62 µM (active)
[32]
  AC50: 18 µM (active)

## Cc1ccc(Nc2nc(N)c3ccccc3n2)cc1Cl
[33]
  EC50: 0.528 µM (active)
[34]
  EC50: 4.99 µM (active)
[3]
  IC50: > 67.6 µM (inactive)
[4]
  EC50: > 67.6 µM (inactive)
